This note sets out measurements from patent US11369609B2, “Small molecule Wnt inhibitor as treatment for dyslipidemia” (Yale University, priority 2019, dated 2022).

Data set [1] relates to kidney endothelial cells. Nature of the data set: Fatty acid uptake in isolated kidney endothelial cells. The format is in vivo. The conditions noted are these: diabetic mice, radiolabeled [14C]palmitate uptake. Here is the method:
Endothelial cells from the kidneys of non-diabetic and diabetic mice were isolated using a standardized kit (Miltenyl Biotech, USA) by following the manufacturer's instructions. Briefly, kidneys were isolated and minced into small pieces. Using a series of enzymatic reactions by treating the tissue with trypsin and Collagenase type I solution, a single cell suspension was created. The pellet was dissolved with CD31 magnetic beads and the CD31-labelled cells were separated on a magnetic separator. The cells were further purified on a column. Cell number was counted by hemocytometer and cells were plated on 0.1% gelatin coated Petri dishes.
Cultured isolated kidney endothelial cells were incubated with medium containing 2 μCi [^14C]palmitate. [^14C]-palmitate uptake was measured by liquid scintillation counting.
It is increasingly recognized that defects in central metabolism contribute to kidney fibrosis (69, 76). Defective FA metabolism in EC leads to EndMT events (77). To investigate whether FA metabolism was deranged in the model, radiolabeled [^14C]palmitate uptake experiments were performed in isolated EC from mouse kidneys. […] FA oxidation (FAO) was also assessed by measuring the ^14CO2 release from radiolabeled [^14C]palmitate in cultured EC isolated from kidneys. […]

Data set [2] concerns canonical Wnt signaling. Nature of the data set: Renal fibrosis in diabetic GR^ECKO and control littermate mice treated with Wnt inhibitor. The format is in vivo. The method, then:
All experiments were performed in accordance with the National Institute of Health (NIH) Guidelines for the Care of Laboratory Animals. Mice lacking the endothelial glucocorticoid receptor (GR) (known as GR^ECKO) and those lacking this receptor on the Apo E null background (DKO) were generated as previously described (6). The induction of diabetes in CD-1 mice and C57B/L6 mice was performed according to previously established experimental protocols (38-42). Briefly, diabetes was induced in 10-week-old GR^ECKO mice with five consecutive intraperitoneal (IP) doses of streptozotocin (STZ) 50 mg/kg in 10 mmol/L citrate buffer (pH 4.5). Wnt inhibitor (LGK974) was provided to GR^ECKO and control littermate at 5 mg/kg at a frequency of six doses per week for 8 weeks (43). Etomoxir (20 mg/kg) and c75 (15 mg/kg) were dosed (ip) three times per week for 3 weeks in the GR^ECKO and control littermate. A single IP dose of 200 mg/kg STZ was used to induce diabetes in CD-1 mice. Fenofibrate (100 mg/kg), simvastatin (40 mg/kg), were dosed orally for 4 weeks in diabetic CD-1 mice. All mice were sacrificed after 4 weeks of treatment and tissues and blood were harvested. Urine albumin levels were assayed using a Mouse Albumin ELISA Kit (Exocell, Philadelphia, Pa.).
A point-counting method was utilized to evaluate the relative area of the mesangial matrix. PAS-stained glomeruli from each mouse were analyzed using a digital microscope screen grid containing 540 (27×20) points. Masson's trichrome-stained images were evaluated by ImageJ software, and the fibrotic areas were estimated.
Deparaffinized sections were incubated with picrosirius red solution for 1 hour at room temperature. The slides were washed twice with acetic acid solution for 30 seconds per wash. The slides were then dehydrated in absolute alcohol three times, cleared in xylene, and mounted with a synthetic resin. Sirius red staining was analyzed using ImageJ software, and fibrotic areas were quantified.
Frozen kidney sections (5 μm) were used for immunofluorescence; double positive labeling with CD31/αSMA, CD31/TGFβR1 and E-cadherin/αSMA was measured. Briefly, frozen sections were dried and placed in acetone for 10 min at −30° C. Once the sections were dried, they were washed twice in phosphate-buffered saline (PBS) for 5 min and then blocked in 2% bovine serum albumin/PBS for 30 min at room temperature. Thereafter, the sections were incubated in primary antibody (1:100) for 1 hour and washed in PBS (5 min) three times. Next, the sections were incubated with the secondary antibodies for 30 min, washed with PBS three times (5 min each), and mounted with mounting medium with DAPI (Vector Laboratories, Burlingame, Calif.). The immune-labeled sections were analyzed by fluorescence microscopy. For each mouse, original magnification of ×400 pictures were obtained from six different areas, and quantification was performed.
Frozen sections (5 μm) were used for the detection of EndMT and EMT. Cells undergoing EndMT were detected by double-positive labeling for CD31 and αSMA and/or TGFβR1. Cells undergoing EMT were detected by double-positive labeling for E-cadherin and αSMA. Sections were analyzed and quantified by fluorescence microscopy.
To determine whether Wnt inhibition could mitigate the renal fibrosis observed in diabetic mice lacking endothelial GR, a cohort of animals was treated with the Wnt inhibitor, LGK974. At the age of 8 weeks, control and GR^ECKO mice were injected with STZ 50 mg/kg for five consecutive days. Sixteen weeks after injection, LGK974 was administered by oral gavage for eight additional weeks (FIG. 16A).

Setting [3] is: diabetic control vs diabetic GR^ECKO mice.

For the compound `Cc1cc(-c2ncc(CC(=O)Nc3ccc(-c4cnccn4)cn3)cc2C)ccn1` [LGK974], the “FA uptake in isolated kidney EC” value in data set [1] is recorded as “suppressed FA uptake”. Besides, the “effect on Wnt signaling, fibrogenic phenotype and endothelial GR level in GR^ECKO” value in data set [2] (GR^ECKO vs mouse model of diabetic kidney disease) is recorded as “less evident”. For the same compound, in data set [2] (at sacrifice, among the groups, LGK974 oral gavage 8 weeks), the body weight entry is recorded as “no differences”. Besides, the “level of EMT (E-cadherin/αSMA co-positive cells)” value in data set [2] (control and diabetic GR^ECKO mice) is reported as “significantly reduced”. The renal fibrosis result in data set [2] (diabetic GR^ECKO and DKO mice (legend of FIG. 16)) was “partially abrogates the renal fibrosis”. Also, the kidney weight entry in data set [2] (diabetic GR^ECKO and diabetic control mice) is given as “significant reduction”. In addition, in data set [2] (diabetic GR^ECKO mice), the “EndMT (CD31/αSMA co-positive cells)” value is listed as “less pronounced”; the “relative area of fibrosis” value is recorded as “less pronounced, though still significant”; the relative collagen deposition entry was “less pronounced, though still significant”; the tubular damage result is given as “less pronounced, though still significant”. Also, in data set [2] (diabetic control mice), the “EndMT (CD31/αSMA co-positive cells)” value is recorded as “significantly suppressed”, the “relative area of fibrosis” value is “clearly improved”, the relative collagen deposition entry is “clearly improved” and the tubular damage result is “clearly improved”. Also, in data set [2] (setting [3]), the staining of fibronectin result is “A similar pattern was observed” and the “staining of β-catenin” value is “A similar pattern was observed”.
